Measurements from a melting point compilation (Tetko et al.; mined from patent text by program, amines drawn as free bases though some values may be those of a salt).
Starred links: 1 amine or outer side, 2 acyl side, 3 side chain; linkers in the order of their positions; H or OH if unused. Residues, ends and D or L forms follow the SMILES beside them. *: point of attachment. Glutaryl = O=C(CCCC(=O)[*:2])[*:1]; NHPr = CCCN*

Q: Which melting point does the source give for `CCOC(=O)COc1ccc(-c2noc3ccccc23)c(Cl)c1Cl` here?
A: 88 to 89 °C

Q: With `NC(=O)Cn1ccc2ccccc21` as the molecule, how does the melting point read?
A: 177 to 179 °C

Q: With `CCOC(=O)COc1cccc(C(NC(C)=O)(C(=O)OCC)C(=O)OCC)c1` as the molecule, how does the melting point read?
A: 98.5 to 102 °C

Q: For `CCOC(=O)c1ncn2c1CNC(=O)c1sccc1-2`, which melting point is on record?
A: 263 to 264 °C

Q: For `CCOc1cc(OC)c2cc(C(=O)CN=[N+]=[N-])ccc2n1`, which melting point is on record?
A: 129 to 132 °C

Q: With `CC12CCC3c4cc(C=O)c(O)cc4CCC3C1CCC2O` (stereo not given) as the molecule, how does the melting point read?
A: 219 to 221 °C

Q: With `CN(C(=O)C1=NN(c2ccc(Cl)cc2)C(c2ccc(Cl)cc2)C1)c1ccc(C(F)(F)F)cc1` (stereo not given) as the molecule, how does the melting point read?
A: 181 to 183 °C

Q: Which melting point does the source give for `O=P1(O)Oc2ccccc2-c2cc(F)ccc21` here?
A: 240 °C

Q: With `CCOC(=O)c1cc2c(nc(C)n2C)c(O)c1CCC(=O)c1ccccc1` as the molecule, how does the melting point read?
A: 205 to 206 °C

Q: Which melting point does the source give for `Nc1nccc(OCCc2ccccc2)c1[N+](=O)[O-]` here?
A: 131 to 132 °C

Q: With `COc1cc(OC)nc(NC(=O)NS(=O)(=O)c2ccccc2C(O)c2cccs2)n1` (stereo not given) as the molecule, how does the melting point read?
A: 152 to 154 °C

Q: For `CC(C)c1cc(C(=O)Nc2ccc(C(=O)O)cc2)oc1C(C)C`, which melting point is on record?
A: 120 to 121 °C

Q: Which melting point does the source give for `COn1c(C)nc2c(NCc3c(C)cccc3C)cc(C(=O)O)cc21` here?
A: 248 to 249 °C

Q: For `O=C(c1ccccc1)c1c(F)ccc([N+](=O)[O-])c1F`, which melting point is on record?
A: 75.8 to 77.2 °C

Q: For `O=C(O)c1cccc(-c2coc3c(O)c(O)ccc3c2=O)c1`, which melting point is on record?
A: 313 to 314 °C

Q: Which melting point does the source give for `CC(=Cc1ccc(F)cc1)CNC(=O)c1ccc(F)cc1` here?
A: 107 to 109 °C

Q: For `Cc1nn(-c2ccccn2)cc1COc1ccc(C=O)cc1`, which melting point is on record?
A: 84 to 85 °C

Q: With `COc1ccc(CN2C(=O)C(N)C(=O)N(CCC(C)C)c3ccccc32)cc1` (stereo not given) as the molecule, how does the melting point read?
A: 115 to 116 °C

Q: With `CCc1cn(S(C)(=O)=O)c2c1C(=O)CC(c1ccccc1)C2` (stereo not given) as the molecule, how does the melting point read?
A: 153 to 154 °C

Q: Which melting point does the source give for `O=C(O)c1cc(F)c(O)nc1Nc1ccc(F)cc1` here?
A: 216 to 217 °C

Q: For `COc1cc(N2CCN(C[C@H](C)O)CC2)c(F)cc1Nc1ncc2ccc(-c3ccccc3N(C)S(C)(=O)=O)n2n1`, which melting point is on record?
A: 116 to 120 °C

Q: Which melting point does the source give for `COc1cccc(-c2nc(Cl)nc(Nc3cccc([N+](=O)[O-])c3)n2)c1` here?
A: 155 °C

Q: With `CCC1CCCN(C(=O)C2Cc3ccccc3N2c2ccc(=O)n(C)n2)C1` (stereo not given) as the molecule, how does the melting point read?
A: 150 to 154 °C

Q: Which melting point does the source give for `COc1ccc(C)cc1NC(=O)Nc1ccc(C2=CCN(C(=O)Nc3ncccc3CO)CC2)cc1` here?
A: 103 to 108 °C

Q: Which melting point does the source give for `COC(=O)c1ccc(-c2nc3[nH]c4ccccc4c3c(=O)[nH]2)cc1` here?
A: > 250 °C

Q: For `CCOC(=O)c1c(O)c2cccnc2n(Cc2ccc(Cl)cc2)c1=O`, which melting point is on record?
A: 142 to 144 °C

Q: Which melting point does the source give for `O=C(O)c1cc(-c2ccccc2)c(=O)n2c1-c1sccc1C2` here?
A: > 300 °C

Q: Which melting point does the source give for `N#Cc1ccccc1-c1ccc(CCl)cc1` here?
A: 125 to 126 °C

Q: With `CC(C)NC1CCCCC1O` (stereo not given) as the molecule, how does the melting point read?
A: 54 to 55 °C

Q: Which melting point does the source give for `Nc1nc(-c2cc(OCc3ccccc3)no2)cs1` here?
A: 129 to 131 °C

Q: Which melting point does the source give for `COC(=O)c1ccc(OCCc2c[nH]cn2)cc1` here?
A: 116 to 118 °C

Q: With `Nc1nc(Nc2ccc(N3CCOCC3)cc2)sc1C(=O)c1c(Cl)cncc1Cl` as the molecule, how does the melting point read?
A: 292 °C

Q: With `c1ccc(Sc2cc(Sc3ccccc3)cc(Sc3ccccc3)c2)cc1` as the molecule, how does the melting point read?
A: 40 to 41 °C

Q: Which melting point does the source give for `CCOC(=O)C(Cc1ccc(OC)cc1SCc1ccc(OC)cc1)(CC(C)C)C(=O)OCC` here?
A: 59 to 60.5 °C

Q: With `COc1ccc(C(=O)Nc2ccccc2)cc1NS(=O)(=O)c1cn(C)cn1` as the molecule, how does the melting point read?
A: 250 to 252 °C

Q: With `CC(C)(C)c1cc(C=C2CON(C(N)=O)C2=O)cc(C(C)(C)C)c1O` as the molecule, how does the melting point read?
A: 178 to 181 °C

Q: For `CCCCc1cn(Cc2ccc(-c3ccccc3C(=O)OC)cc2)c2cc(CO)ccc2c1=O`, which melting point is on record?
A: 140 °C

Q: Which melting point does the source give for `O=C(O)c1ccc(-c2cc(O)c(SCCc3ccccc3)c(=O)o2)cc1` here?
A: 231 °C

Q: Which melting point does the source give for `O=C(Nc1ccc2c(c1)CCSC2)OCc1ccccc1` here?
A: 116 to 118 °C

Q: With `COc1ccc(C=O)c(O)c1O` as the molecule, how does the melting point read?
A: 116 to 117 °C

Q: Which melting point does the source give for `COc1cccc(CCc2cc(C(C)(C)C)c(O)c(C(C)(C)C)c2)c1NC(=O)NC1CCN(Cc2ccccc2)CC1` here?
A: 184 to 185 °C

Q: With `Cc1cc(O)cc(C)c1-c1cccc2c1Oc1ccccc1S2` as the molecule, how does the melting point read?
A: 116 °C

Q: Which melting point does the source give for `CN(C(=O)CN1C(=O)C(NC(=O)Nc2cccc(N)c2)N=C(CN2CCOCC2)c2ccccc21)c1ccccc1` (stereo not given) here?
A: 158 to 160 °C

Q: Which melting point does the source give for `CCCCc1nn(-c2ccccc2Cl)c(=O)n1Cc1ccc(-c2ccccc2S(=O)(=O)NC(=O)c2ccc(F)cc2)cc1` here?
A: 118 to 120 °C

Q: Which melting point does the source give for `C=CCNC(=O)N(O)Cc1c(C)n(C(=O)c2ccc(Cl)cc2)c2ccc(OC)cc12` here?
A: 148 to 149 °C

Q: For `COc1ccc(Br)c(C=O)c1O`, which melting point is on record?
A: 102 to 103 °C

Q: With `COc1cccc(N)c1C(=O)NC1CCN(C(C)CC(C(=O)N(C)C)(c2ccccc2)c2ccccc2)CC1O` (stereo not given) as the molecule, how does the melting point read?
A: 175 °C

Q: Which melting point does the source give for `COc1ccc(-c2[nH]nc3c2C(=O)c2c(NC(=O)Cc4ccc(NC(C)=O)cc4)cccc2-3)cc1` here?
A: 268 °C

Q: For `CCCCCCCCCCCCCCOc1ccc(C(=O)O)s1`, which melting point is on record?
A: 95 to 96 °C

Q: Which melting point does the source give for `CCCNC(=O)C1CCCN1C(=O)C(C)NC(=O)C(C)NC(=O)CCCC(=O)O` (stereo not drawn) (Glutaryl-Ala-Ala-Pro-NHPr; configuration not given here) here?
A: 131 to 134 °C

Q: For `CCN(CC)c1cccc2nc(C(O)c3ccc(Cl)cc3Cl)n(CCO)c12` (stereo not given), which melting point is on record?
A: 177 to 179 °C

Q: For `CC(C#N)(CCc1ccccc1C(F)(F)F)NC(=O)c1ccc(OC(F)(F)F)cc1` (stereo not given), which melting point is on record?
A: 87 to 89 °C

Q: Which melting point does the source give for `CC(C)(C)c1nnc2ccc(Cl)nn12` here?
A: 150 to 152 °C

Q: For `Cc1ccc(C)c(NC(=O)N2CCC(c3nc(C4=NOC(c5ccccc5)C4)cs3)CC2)c1` (stereo not given), which melting point is on record?
A: 124 to 127 °C

Q: With `CCOC(=O)C(Cl)=Cc1cc(-n2ncc(C(F)(F)F)cc2=O)c(F)cc1Cl` as the molecule, how does the melting point read?
A: 139 to 140 °C

Q: Which melting point does the source give for `CC1(C)Sc2oc(S(N)(=O)=O)cc2C1=O` here?
A: 167 to 169 °C

Q: For `Cc1ccc(S(=O)(=O)C2SC(=O)N(C(c3ccccc3)(c3ccccc3)c3ccccc3)C2=O)cc1` (stereo not given), which melting point is on record?
A: 105 to 110 °C

Q: For `CCC(N1CCC(Oc2c(F)c(F)c(F)c(F)c2F)CC1)n1c(=O)[nH]c2ccccc21` (stereo not given), which melting point is on record?
A: 117 to 120 °C

Q: Which melting point does the source give for `O=c1oc2cc(Br)ccc2c(O)c1[N+](=O)[O-]` here?
A: 155 to 157 °C

Q: Which melting point does the source give for `COc1cc(OC)c2c(=O)[nH]c(-c3ccc(OCCO)c(-c4cccc(S(C)=O)c4)n3)nc2c1` (stereo not given) here?
A: 272 to 273 °C
